Source: the NIST ThermoML archive (doi:10.1021/je400951k)

C=CC(C)CCC=C(C)C (stereo unspecified) [3,7-dimethyl-1,6-octadiene]
Liquid, Closed cell (Static) method
Details	vapor or sublimation pressure [kPa]
316.5 K	1.26
322.57 K	1.76
327.44 K	2.26
334.96 K	3.26
340.66 K	4.26
345.44 K	5.26
349.51 K	6.26
356.16 K	8.25
361.68 K	10.23
373.78 K	16.25
379.02 K	20.26
385.62 K	25.26
391.11 K	30.26

CCCCCCCCO [octan-1-ol]
Liquid, Closed cell (Static) method
Details	vapor or sublimation pressure [kPa]
358.05 K	1.088
363.99 K	1.527
368.73 K	2.016
381.98 K	4.073
393.36 K	7.08
401.09 K	10.04
410.79 K	15.04
418.15 K	20.03
429.75 K	30.2

C=C(C)C1CC=C(C)CC1 (stereo unspecified) [1-methyl-4-(1-methylethenyl)cyclohexene]
Liquid, Closed cell (Static) method
Details	vapor or sublimation pressure [kPa]
346.96 K	3.01
353.19 K	4.013
358.22 K	5.008
362.25 K	6.002
366.08 K	7.018
369.31 K	8.018
372.54 K	9.043
375.27 K	10.02
379.93 K	12.04
386.12 K	15.04
394.56 K	20.01
401.29 K	25.04
407.1 K	30.09
416.21 K	39.91
420.21 K	44.8

C=C1C2CCC(C2)C1(C)C (stereo unspecified) [2,2-dimethyl-3-methylenebicyclo[2.2.1]heptane]
Details	vapor or sublimation pressure [kPa]
309.7 K, Metastable liquid, Closed cell (Static) method	1.007
322.72 K, Closed cell (Static) method, Liquid	2.026
331.06 K, Closed cell (Static) method, Liquid	3.053
337.27 K, Closed cell (Static) method, Liquid	4.056
342.04 K, Closed cell (Static) method, Liquid	5.043
346.21 K, Closed cell (Static) method, Liquid	6.007
350.07 K, Closed cell (Static) method, Liquid	7.068
353.23 K, Closed cell (Static) method, Liquid	8.029
355.98 K, Closed cell (Static) method, Liquid	9.003
358.83 K, Closed cell (Static) method, Liquid	10.07
365.69 K, Closed cell (Static) method, Liquid	13.05
369.58 K, Closed cell (Static) method, Liquid	15.06
378.51 K, Closed cell (Static) method, Liquid	20.12
384.98 K, Closed cell (Static) method, Liquid	25
390.65 K, Closed cell (Static) method, Liquid	29.95
399.95 K, Closed cell (Static) method, Liquid	40.04
407.61 K, Closed cell (Static) method, Liquid	50.02

O [water]
Liquid, Closed cell (Static) method
Details	vapor or sublimation pressure [kPa]
292.54 K	2.16
303.48 K	4.43
310.23 K	6.19
315.78 K	8.497
319.82 K	10.5
327.62 K	15.71
334.02 K	20.83
343.07 K	30.04

C[C@H]1CC[C@@H]2C[C@H]1C2(C)C (racemic) [(1RS,2SR,5RS)-2,6,6-trimethylbicyclo[3.1.1]heptane]
Liquid, Closed cell (Static) method
Details	vapor or sublimation pressure [kPa]
330.27 K	2.04
338.5 K	3.03
344.71 K	4.015
349.8 K	4.98
357.77 K	7.015
360.94 K	8.015
366.78 K	10.04
373.45 K	13.04
379.03 K	16.05
385.72 K	20.04
392.24 K	25.05
397.94 K	30.04
407.54 K	40.03
415.01 K	50.03

CC(=O)O[C@@H]1C[C@H]2CC[C@]1(C)C2(C)C (relative stereo)
Liquid, Closed cell (Static) method
Details	vapor or sublimation pressure [kPa]
381.09 K	2.004
390.08 K	3.021
397.1 K	4.013
402.69 K	5.01
407.45 K	6.023
411.6 K	7.027
414.92 K	8.014
418.66 K	9.042
421.67 K	10.03
427.93 K	12.04
434.61 K	15.02
442.35 K	19.12
452.64 K	26.01
457.89 K	30.15
463.13 K	35
468.12 K	40.12
472.63 K	45.25

C=CC(C)CCCC(C)(C)O (stereo unspecified) [2,6-dimethyl-7-octen-2-ol]
Liquid, Closed cell (Static) method
Details	vapor or sublimation pressure [kPa]
351.52 K	0.82
354.37 K	1.015
360.41 K	1.516
365.22 K	2.03
372.31 K	3.024
377.4 K	4.017
381.86 K	5.015
388.97 K	7.03
394.58 K	9.035
401.82 K	12.04
407.61 K	15.04
415.17 K	20.03
421.59 K	25.04
